Measured values published in US8785424B2, “ngCycloartanone derivatives with anticancer activity” (Pierre Fabre Medicament, priority 2009, dated 2014).
Structures can show the parent of a compound that is named as a salt.

Test system: proteasome
Experiment: Cellular proteasome inhibition test: accumulation of 4Ub-Luc reporter (luciferase activity) in DLD-1 4Ub-Luc cell line
Type: cell-based, human
Conditions: DLD-1 4Ub-Luc cells, 8 hours, epoxomicin = 100%
Method: Biological tests were carried out according to protocols described in the following articles: Ausseil F. et al. J. Biomol Screen. 2007, 12, 106-116 and Vandenberghe I. et al. Biochemical Pharmacology 2008, 76, 453-462.
In order to select novel proteasome inhibitor compounds, it is necessary to indirectly measure the activity of this proteasome within cells. To this end, we constructed a stable cell line, DLD-1 4Ub-Luc, arising from a human colon cancer cell line, which produces a chimeric reporter protein called 4Ub-Luc. This protein is a fusion between a 4-ubiquitin (4Ub) label and luciferase (Luc). This label is capable to direct every proteins that carry it toward the proteasome. The 4Ub-Luc protein is thus efficiently degraded by the proteasome, in contrast to the “wild” non-fused Luc protein. When the DLD-1 4Ub-Luc cell line is treated with a proteasome inhibitor, the fusion protein is much less efficiently degraded and accumulates in the cell. This accumulation is detected by an increase in luciferase activity in the treated extract compared to the extract from untreated cells. The control consists of verifying that the inhibitor has no effect on accumulation of the wild Luc protein produced by the stable DLD-1 RF cell line. For both cell lines and for each product an induction factor is determined for the product tested (or the reference) corresponding to the ratio between the luciferase activities measured in cells treated with this product (or the reference) and cells treated with solvent alone.
The product's activity is then defined by its relative induction factor, i.e., the ratio of its induction factor (IF % luminescence) to that of the reference molecule epoxomicin (IF=100%; see data presented in the table below).
Thus, the test established by Pierre-Fabre is a cellular test that has the advantage, compared to a purely enzymatic test, of detecting only products capable of penetrating the cell.
Two cell lines are used for this test: DLD-1 RF and DLD-1 4Ub-Luc. The culture medium used is as follows: • MEM • 5% fetal calf serum • 5 ml of penicillin-streptomycin • 2.5 ml of FUNGIZONE® (Amphotericin B) • 10 ml of […]
Day 1: Inoculate white 96-well culture-treated plates (PerkinElmer White ViewPlate, product no. 6005181) with 100 μl of 1·10^5 c/ml cell suspension per well. Incubate for 24 hours so that the cells adhere. On each plate five columns will be inoculated with DLD-1 4Ub-Luc and five others with DLD-1 RF according to diagram 1 below.
Day 2: Remove the medium by turning the plates upside down on cotton, and then carry out the treatment with the compounds of the invention, with solvent alone or with a reference compound such as epoxomicin. […]
The columns are paired (examples 2 and 8, 3 and 9, 4 and 10 and 5 and 11) and treated with the same compound. Columns 6 and 7 receive the experimental control, namely 0.1% DMSO in culture medium for wells B, C, D, and E of columns 6 and 7, and the positive control (10^−7 M epoxomicin) in wells F and G.
After incubation, turn the plate upside down on cotton to empty the wells, rinse with 50 μl of PBS to remove any trace of the cytotoxin tested and then add 50 μl of 5× passive lysis buffer (Promega, product no. E1941) diluted to ⅕ in water. Shake energetically using a plate shaker for 5 to 10 minutes at room temperature before freezing at −20° C.
Luciferase activity is measured using a Luciferase Assay System 10-Pack kit (Promega, product no. E1501).
On the day luciferase activity is to be measured, defrost the plates and wait until they have returned to room temperature. The optimal temperature for luciferase activity is 20-25° C.
Reconstitute the firefly luciferase substrate by defrosting the buffer and then adding 10 ml of buffer to the bottle containing the freeze-dried substrate. Wait until the solution is at room temperature before beginning the assay. […]

[1] = concentration tested 5 · 10^−6 M
[2] = concentration tested 5 · 10^−7 M
[3] = concentration tested 5 · 10^−6 M, hydrochloride
[4] = concentration tested 10^−5 M, hydrochloride
[5] = concentration tested 10^−6 M, hydrochloride

Row | SMILES | relative induction factor (IF % luminescence) versus epoxomicin [1] [%] | relative induction factor (IF % luminescence) versus epoxomicin (concentration tested 10^−5 M) [%] | relative induction factor (IF % luminescence) versus epoxomicin (concentration tested 10^−6 M) [%] | relative induction factor (IF % luminescence) versus epoxomicin [2] [%] | relative induction factor (IF % luminescence) versus epoxomicin [3] [%] | relative induction factor (IF % luminescence) versus epoxomicin [4] [%] | relative induction factor (IF % luminescence) versus epoxomicin [5] [%]
1 | C=C(C(=O)[C@H](OC(C)=O)[C@@H](C)[C@H]1[C@@H](OC(C)=O)C[C@@]2(C)[C@@H]3CC[C@H]4[C@H](C)/C(=N/OCc5ccccc5)C=C[C@@]45C[C@@]35CC[C@]12C)[C@@H](C)CO [Compound 36, 3-anti-O-benzyloxime-neoboutomellerone] | 12 | 6 | 1 | – | – | – | –
2 | CC(=O)O[C@H]1C[C@@]2(C)C3CCC4[C@H](C)C(=O)C=C[C@@]45C[C@@]35CC[C@]2(C)[C@H]1[C@H](C)[C@@H](OC(C)=O)C1=C(CN=[N+]=[N-])C(C)CO1 (stereo partly drawn) [Compound 47, Azido-methyl-dihydro-furan-neoboutomellerone Derivative] | 78 | 36 | 7 | – | – | – | –
3 | C=C(C(=O)[C@H](OC(C)=O)[C@@H](C)[C@H]1[C@@H](OC(C)=O)C[C@@]2(C)C3CCC4[C@H](C)C(=O)C=C[C@@]45C[C@@]35CC[C@]12C)[C@@H](C)COC(=O)CCl (stereo partly drawn) [Compound 49, 26-chloro-acetate-neoboutomellerone Derivative] | 44 | 15 | 19 | – | – | – | –
4 | C=C([C@@H](C)COC)C1(O)O[C@H]2C[C@@]3(C)C4CCC5[C@H](C)C(=O)C=C[C@@]56C[C@@]46CC[C@]3(C)[C@H]2[C@H](C)[C@H]1OC(C)=O (stereo partly drawn) [Compound 51, 16-deacetyl-26-methoxy-neoboutomellerone-hemiacetal] | 31 | 60 | 1 | – | – | – | –
5 | C=C(C(=O)[C@H](OC(C)=O)[C@@H](C)[C@H]1[C@@H](OC(C)=O)C[C@@]2(C)C3CCC4[C@H](C)C(=O)C=C[C@@]45C[C@@]35CC[C@]12C)[C@@H](C)COC(=O)CNC(=O)OC(C)(C)C (stereo partly drawn) [Compound 56, Neoboutomellerone 26-N-Boc-glycinate] | 34 | 7 | 21 | – | – | – | –
6 | C=C(C(=O)[C@H](O)[C@@H](C)[C@H]1[C@@H](OC(C)=O)C[C@@]2(C)C3CCC4[C@H](C)C(=O)C=C[C@@]45C[C@@]35CC[C@]12C)[C@@H](C)COC(=O)CNC(=O)OC(C)(C)C (stereo partly drawn) [Compound 58, 22-deacetyl-neoboutomellerone 26-N-Boc-glycinate] | 46 | 10 | 8 | – | – | – | –
7 | C=C(C(=O)[C@H](OC(=O)CNC(=O)OC(C)(C)C)[C@@H](C)[C@H]1[C@@H](OC(C)=O)C[C@@]2(C)C3CCC4[C@H](C)C(=O)C=C[C@@]45C[C@@]35CC[C@]12C)[C@@H](C)COC(C)=O (stereo partly drawn) [Compound 60, 22-deacetyl-neoboutomellerone 22-(N-Boc-glycinate)-26-acetyl] | 4 | 2 | 71 | 76 | – | – | –
8 | C=C(C(=O)[C@H](OC(=O)CCl)[C@@H](C)[C@H]1[C@@H](OC(C)=O)C[C@@]2(C)C3CCC4[C@H](C)C(=O)C=C[C@@]45C[C@@]35CC[C@]12C)[C@@H](C)COC(C)=O (stereo partly drawn) [Compound 61, 22-chloroacetyl-26-acetyl-neoboutomellerone] | 21 | 6 | 64 | 23 | – | – | –
9 | C=C(C(=O)[C@H](OC(C)=O)[C@@H](C)[C@H]1[C@@H](OC(C)=O)C[C@@]2(C)C3CCC4[C@H](C)C(=O)C=C[C@@]45C[C@@]35CC[C@]12C)[C@@H](C)COC(=O)CN(C)C (stereo partly drawn) [Compound 62, Neoboutomellerone 26-N-dimethyl glycinate] | 49 | 7 | 11 | – | – | – | –
10 | C=C(C(=O)[C@H](OC(C)=O)[C@@H](C)[C@H]1[C@@H](OC(C)=O)C[C@@]2(C)C3CCC4[C@H](C)C(=O)C=C[C@@]45C[C@@]35CC[C@]12C)[C@@H](C)COC(=O)CN(C)C (stereo partly drawn) [Compound 63, neoboutomellerone 26-N-dimethyl glycinate hydrochloride] | – | – | – | 66 | 11 | 3 | 50
11 | C=C(C(=O)[C@H](O)[C@@H](C)[C@H]1[C@@H](OC(C)=O)C[C@@]2(C)C3CCC4[C@H](C)C(=O)C=C[C@@]45C[C@@]35CC[C@]12C)[C@@H](C)COC(=O)CN(C)C (stereo partly drawn) [Compound 64, 22-deacetyl-neoboutomellerone 26-N-dimethyl glycinate] | 35 | 7 | 22 | – | – | – | –
12 | C=C(C(=O)[C@H](O)[C@@H](C)[C@H]1[C@@H](OC(C)=O)C[C@@]2(C)C3CCC4[C@H](C)C(=O)C=C[C@@]45C[C@@]35CC[C@]12C)[C@@H](C)COC(=O)CN(C)C (stereo partly drawn) [Compound 65, 22-deacetyl-neoboutomellerone 26-N dimethyl glycinate hydrochloride] | – | – | – | 1 | 34 | 4 | 17
13 | C=C(C(=O)[C@H](O)[C@@H](C)[C@H]1[C@@H](OC(C)=O)C[C@@]2(C)[C@@H]3CC[C@H]4[C@H](C)C(=O)C=C[C@@]45C[C@@]35CC[C@]12C)[C@@H](C)COC(=O)CCN(CC)CC [Compound 66, 26-deacetyl-neoboutomellerone 26-N-diethyl-β-alaninate] | 9 | 2 | 13 | – | – | – | –
14 | C=C(C(=O)[C@H](OC(C)=O)[C@@H](C)[C@H]1[C@@H](OC(C)=O)C[C@@]2(C)C3CCC4[C@H](C)C(=O)C=C[C@@]45C[C@@]35CC[C@]12C)[C@@H](C)COC(=O)CCC(=O)O (stereo partly drawn) [Compound 68, 26-succinate-neoboutomellerone] | 18 | 4 | 52 | 1 | – | – | –
15 | C=C(C(=O)[C@H](O)[C@@H](C)[C@H]1[C@@H](OC(C)=O)C[C@@]2(C)C3CCC4[C@H](C)C(=O)C=C[C@@]45C[C@@]35CC[C@]12C)[C@@H](C)COC(=O)CCC(=O)O (stereo partly drawn) [Compound 71, 26-succinate-22-deacetyl-neoboutomellerone] | 11 | 4 | 62 | 6 | – | – | –
